Data set [1] concerns c19orf66 protein expression. Put plainly: doxycycline-induced c19orf66 protein expression by western blot in transduced Vero-E6 cells. Format: cell-based. Conditions: bulk sorted cells re-induced with 0, 0.8, 4, 20, 100 or 500 ng/mL.
The test system of a further data set is Vero E6 cells. The settings on record: African green monkey; for Cell Health: cell death / Cell Health: cells death: 48 h.
The next data set deals with EGFP expression. Put plainly: doxycycline-induced EGFP reporter expression (microscopy / flow cytometry) in transduced Vero-E6 cells. In kind it is cell-based. In general terms: In flow cytometry, cells or beads pass a laser one at a time.
Data set [2] relates to SARS CoV-2 (USA_WA1/2020). Format: cell-based.

Read-outs that look alike come from different tables or passages of the source.

Take `C[C@H]1c2cccc(O)c2C(=O)C2=C(O)[C@]3(O)C(=O)C(C(N)=O)=C(O)[C@@H](N(C)C)[C@@H]3[C@@H](O)[C@@H]21` [doxycycline]: the “doxycycline concentration inducing c19orf66 (western blot)” value in data set [1] is listed as “at least 20 ng/mL”. The “Cell Health: cell death” value in the data set with Vero E6 cells (10 ng/mL) was 50% cell death at 10 ng/mL and worse at higher concentrations; with Vero E6 cells (20 ng/mL), 50%. In addition, the “Cell Health: cells death” value with Vero E6 cells (50 ng/mL) is given as 20%; in the data set on Vero E6 cells (100 ng/mL) it was 40%. Also, the “Cell Health: doxycycline concentration at which cell death is observed” value with Vero E6 cells (96 h) is 10 ng/mL. Also, the “EGFP: doxycycline concentration at which EGFP is visible” value with EGFP expression (Bulk Sorted, 48 hours) is 10 ng/mL; with EGFP expression (Bulk Sorted, 96 hours) it was “Visible at ≧ 10 ng/mL”; with EGFP expression (Clone 9, 48 hours), “Visible at 10 ng/mL and higher concentrations”; in the data set with EGFP expression (Clone 9, 96 hours) it was “Visible at ≧ 10 ng/mL”; in the data set on EGFP expression (Clone 21, 48 hours), 5 ng/mL; in the data set on EGFP expression (Clone 21, 96 hours), “Visible at ≧ 10 ng/mL”. In addition, the “EGFP: doxycycline concentration giving strong signal” value with EGFP expression (Bulk Sorted, 48 hours) is given as 20 ng/mL; in the data set with EGFP expression (Clone 21, 48 hours), 10 ng/mL.
Consider “C19orf66: Chromosome 19 Open Reading Frame 66 protein, interferon-stimulated gene; here expressed from a doxycycline-inducible lentiviral construct”, for which, in data set [2], the “number of infected cells (% infected cells)” value is on record as “reduction” and the “viral inhibition relative to remdesivir control” value was “comparable to remdesivir”.

For the origin of these results see patent publication US20230190871A1, “METHODS AND COMPOSITIONS FOR TREATMENT OF VIRAL INFECTIONS” (priority 2020, published 2023).
